Biological target: Ba/F3 (EGFR^L858R/T790M/C797S) cells (Homo sapiens, UniProt P00533, T790M/C797S/L858R, cells depend on it)
Experiment: Antiproliferative activity on Ba/F3 (EGFR L858R/T790M/C797S) cells (CTG)
Format: cell-based
Conditions: 72h incubation, CTG luminescence, read-out: IC50 (nM), antiproliferative activity
Procedure: 30 nL of the compound dilution was added to a 384-well plate by Echo (Labcyte, Echo550).
The percent inhibition rate (% inhibition) was calculated by the following formula
[formula] • LUMcmpd: Luminescence value of assay compound. • LUMpositive: Average LUM value of positive drug with a concentration of 10 μM. • LUMvehicle: Average LUM value of negative control group without drug treatment.
The nonlinear regression curve (dose response-variable slope) between the value of inhibition rate (%) and the logarithm of compound concentration was fitted with graphpad prism 8.0, the effect dose curve of compound was drawn, and the IC50 value was calculated.
Y=Bottom+(Top−Bottom)/(1+10^((Log IC50−X)*HillSlope)) • X-axis: logarithm of compound concentration; Y axis: inhibition rate (% inhibition).

Chain of Ba/F3 (EGFR^L858R/T790M/C797S) cells (P00533 whole entry T790M/C797S/L858R): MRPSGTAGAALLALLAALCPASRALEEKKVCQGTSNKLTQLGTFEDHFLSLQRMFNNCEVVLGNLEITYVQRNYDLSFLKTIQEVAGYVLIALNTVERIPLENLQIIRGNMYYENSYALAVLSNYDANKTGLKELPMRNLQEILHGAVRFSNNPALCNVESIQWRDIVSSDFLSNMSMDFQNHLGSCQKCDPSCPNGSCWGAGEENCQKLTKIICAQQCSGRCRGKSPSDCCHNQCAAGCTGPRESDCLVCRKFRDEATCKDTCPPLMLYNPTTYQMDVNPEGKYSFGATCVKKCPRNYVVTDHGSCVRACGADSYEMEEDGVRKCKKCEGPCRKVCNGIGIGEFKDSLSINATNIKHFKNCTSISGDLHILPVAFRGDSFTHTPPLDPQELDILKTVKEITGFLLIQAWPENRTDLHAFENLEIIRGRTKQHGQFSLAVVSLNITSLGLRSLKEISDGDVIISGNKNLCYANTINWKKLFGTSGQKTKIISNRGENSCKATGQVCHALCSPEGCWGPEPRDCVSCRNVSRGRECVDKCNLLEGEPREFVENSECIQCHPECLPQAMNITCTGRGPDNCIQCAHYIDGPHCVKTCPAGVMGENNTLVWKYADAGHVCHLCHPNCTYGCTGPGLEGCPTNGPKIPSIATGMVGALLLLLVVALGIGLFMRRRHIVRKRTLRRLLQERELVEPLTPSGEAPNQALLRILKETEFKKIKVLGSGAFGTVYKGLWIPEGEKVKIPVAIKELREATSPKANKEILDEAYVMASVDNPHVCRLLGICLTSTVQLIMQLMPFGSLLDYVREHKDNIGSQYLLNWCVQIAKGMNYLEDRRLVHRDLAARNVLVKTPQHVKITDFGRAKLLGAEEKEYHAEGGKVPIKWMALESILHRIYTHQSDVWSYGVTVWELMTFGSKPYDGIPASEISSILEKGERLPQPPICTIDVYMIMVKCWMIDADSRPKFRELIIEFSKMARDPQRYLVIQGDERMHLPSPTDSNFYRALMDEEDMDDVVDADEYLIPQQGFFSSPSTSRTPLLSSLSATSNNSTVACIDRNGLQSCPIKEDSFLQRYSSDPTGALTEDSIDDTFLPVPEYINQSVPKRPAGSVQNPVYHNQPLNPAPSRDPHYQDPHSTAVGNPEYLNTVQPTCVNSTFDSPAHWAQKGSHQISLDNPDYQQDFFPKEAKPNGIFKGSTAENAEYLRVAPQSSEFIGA

Row | Compound | GI50 [nM]
1 | COc1cc(N2CCC(N3CCN(CCCC#Cc4cccc5c4CN(C4CCC(=O)NC4=O)C5=O)CC3)CC2)c(NC(=O)/C=C/C(F)(F)F)cc1Nc1ncc(C(F)(F)F)c(Nc2ccccc2P(C)(C)=O)n1 (stereo not shown) [Compound D747, (E)-N-(5-((4-((2-(dimethylphosphoryl)phenyl)amino)-5-(trifluoromethyl)pyrimidin-2-yl)amino)-2-(4-(4-(5-(2-(2,6-dioxopiperidin-3-yl)-1-oxoisoindolin-4-yl)pent-4-yn-1-yl)piperazin-1-yl)piperidin-1-yl)-4-methoxyphenyl)-4,4,4-trifluorobut-2-enamide] | 8.77
2 | C=C(C)C(=O)Nc1cc(Nc2ncc(Cl)c(Nc3ccccc3P(C)(C)=O)n2)c(OC)cc1N1CCC(N2CCN(CCCC#Cc3cccc4c3CN(C3CCC(=O)NC3=O)C4=O)CC2)CC1 (stereo not shown) [Compound D579, N-(5-((5-chloro-4-((2-(dimethylphosphoryl)phenyl)amino)pyrimidin-2-yl)amino)-2-(4-(4-(5-(2-(2,6-dioxopiperidin-3-yl)-1-oxoisoindolin-4-yl)pent-4-yn-1-yl)piperazin-1-yl)piperidin-1-yl)-4-methoxyphenyl)methacrylamide] | 41.4
3 | CC#CC(=O)Nc1cc(Nc2ncc(Cl)c(Nc3ccccc3P(C)(C)=O)n2)c(OC)cc1N1CCC(N2CCN(CCCCCC#Cc3cccc4c3CN(C3CCC(=O)NC3=O)C4=O)CC2)CC1 (stereo not shown) [Compound D560, N-(5-((5-chloro-4-((2-(dimethylphosphoryl)phenyl)amino)pyrimidin-2-yl)amino)-2-(4-(4-(7-(2-(2,6-dioxopiperidin-3-yl)-1-oxoisoindolin-4-yl)hept-6-yn-1-yl)piperazin-1-yl)piperidin-1-yl)-4-methoxyphenyl)but-2-ynamide] | 112
4 | C=CC(=O)Nc1cc(Nc2ncc(Br)c(Nc3ccccc3P(C)(C)=O)n2)ccc1N1CCC(N2CCN(CCCC#Cc3cccc4c3CN(C3CCC(=O)NC3=O)C4=O)CC2)CC1 (stereo not shown) [Compound D549, N-(5-((5-bromo-4-((2-(dimethylphosphoryl)phenyl)amino)pyrimidin-2-yl)amino)-2-(4-(4-(5-(2-(2,6-dioxopiperidin-3-yl)-1-oxoisoindolin-4-yl)pent-4-yn-1-yl)piperazin-1-yl)piperidin-1-yl)phenyl)acrylamide] | 7.41
5 | C=CC(=O)Nc1cc(Nc2ncc(Br)c(Nc3ccccc3P(C)(C)=O)n2)c(OC)cc1N1CCC(N2CCN(CCCCCC#Cc3cccc4c3CN(C3CCC(=O)NC3=O)C4=O)CC2)CC1 (stereo not shown) [Compound D503, N-(5-((5-bromo-4-((2-(dimethylphosphoryl)phenyl)amino)pyrimidin-2-yl)amino)-2-(4-(4-(7-(2-(2,6-dioxopiperidin-3-yl)-1-oxoisoindolin-4-yl)hept-6-yn-1-yl)piperazin-1-yl)piperidin-1-yl)-4-methoxyphenyl)acrylamide] | 51.2
6 | C=CC(=O)Nc1cc(Nc2ncc(Br)c(Nc3ccccc3P(C)(C)=O)n2)c(OC)cc1N1CCC(N2CCN(C)CC2)CC1 [Comparative compound L495, reference compound] | 3740
7 | C=C(F)C(=O)Nc1cc(Nc2ncc(Cl)c(Nc3ccc4c(c3P(C)(C)=O)OCCO4)n2)c(OC)cc1N1CCC(N2CCN(CCCC#Cc3cccc4c3CN(C3CCC(=O)NC3=O)C4=O)CC2)CC1 (stereo not shown) [Compound D682] | 14.6
8 | COc1cc(N2CCC(N3CCN(CCCCC#Cc4cccc5c4CN(C4CCC(=O)NC4=O)C5=O)CC3)CC2)c(NC(=O)/C=C/C(F)(F)F)cc1Nc1ncc(Cl)c(Nc2ccccc2P(C)(C)=O)n1 (stereo not shown) [Compound D620, N-(5-((5-chloro-4-((2-(dimethylphosphoryl)phenyl)amino)pyrimidin-2-yl)amino)-2-(4-(4-(6-(2-(2,6-dioxopiperidin-3-yl)-1-oxoisoindolin-4-yl)hex-5-yn-1-yl)piperazin-1-yl)piperidin-1-yl)-4-methoxyphenyl)-4,4,4-trifluorobut-2-enamide] | 46.7
9 | COc1cc(N2CCC(N3CCN(CCCC#Cc4cccc5c4CN(C4CCC(=O)NC4=O)C5=O)CC3)CC2)c(NC(=O)/C=C/C(F)(F)F)cc1Nc1ncc(Cl)c(Nc2ccccc2P(C)(C)=O)n1 (stereo not shown) [Compound D596, N-(5-((5-chloro-4-((2-(dimethylphosphoryl)phenyl)amino)pyrimidin-2-yl)amino)-2-(4-(4-(5-(2-(2,6-dioxopiperidin-3-yl)-1-oxoisoindolin-4-yl)pent-4-yn-1-yl)piperazin-1-yl)piperidin-1-yl)-4-methoxyphenyl)-4,4,4-trifluorobut-2-enamide] | 31.7
10 | C=CC(=O)Nc1cc(Nc2ncc(Cl)c(Nc3ccc4nccnc4c3P(C)(C)=O)n2)c(OC)cc1N1CCC(N2CCN(CCCC#Cc3cccc4c3CN(C3CCC(=O)NC3=O)C4=O)CC2)CC1 (stereo not shown) [Compound D670, N-(5-((5-chloro-4-((5-(dimethylphosphoryl)quinoxalin-6-yl)amino)pyrimidin-2-yl)amino)-2-(4-(4-(5-(2-(2,6-dioxopiperidin-3-yl)-1-oxoisoindolin-4-yl)pent-4-yn-1-yl)piperazin-1-yl)piperidin-1-yl)-4-methoxyphenyl)acrylamide] | 25.7
11 | C=C(F)C(=O)Nc1cc(Nc2ncc(C(F)(F)F)c(Nc3ccccc3P(C)(C)=O)n2)c(OC)cc1N1CCC(N2CCN(CCCC#Cc3cccc4c3CN(C3CCC(=O)NC3=O)C4=O)CC2)CC1 (stereo not shown) [Compound D746, N-(5-((4-((2-(dimethylphosphoryl)phenyl)amino)-5-(trifluoromethyl)pyrimidin-2-yl)amino)-2-(4-(4-(5-(2-(2,6-dioxopiperidin-3-yl)-1-oxoisoindolin-4-yl)pent-4-yn-1-yl)piperazin-1-yl)piperidin-1-yl)-4-methoxyphenyl)-2-fluoroacrylamide] | 3.36
12 | COc1cc(N2CCC(N3CCN(CCCC#Cc4cccc5c4CN(C4CCC(=O)NC4=O)C5=O)CC3)CC2)c(NC(=O)/C=C/c2c[nH]cn2)cc1Nc1ncc(Cl)c(Nc2ccccc2P(C)(C)=O)n1 (stereo not shown) [Compound D581, N-(5-((5-chloro-4-((2-(dimethylphosphoryl)phenyl)amino)pyrimidin-2-yl)amino)-2-(4-(4-(5-(2-(2,6-dioxopiperidin-3-yl)-1-oxoisoindolin-4-yl)pent-4-yn-1-yl)piperazin-1-yl)piperidin-1-yl)-4-methoxyphenyl)-3-(1H-imidazol-4-yl)acrylamide] | 2600
13 | CCCC#CC(=O)Nc1cc(Nc2ncc(Cl)c(Nc3ccccc3P(C)(C)=O)n2)c(OC)cc1N1CCC(N2CCN(CCCC#Cc3cccc4c3CN(C3CCC(=O)NC3=O)C4=O)CC2)CC1 (stereo not shown) [Compound D631, N-(5-((5-chloro-4-((2-(dimethylphosphoryl)phenyl)amino)pyrimidin-2-yl)amino)-2-(4-(4-(5-(2-(2,6-dioxopiperidin-3-yl)-1-oxoisoindolin-4-yl)pent-4-yn-1-yl)piperazin-1-yl)piperidin-1-yl)-4-methoxyphenyl)hex-2-ynamide] | 48.1
14 | CC#CC(=O)Nc1cc(Nc2ncc(Cl)c(Nc3ccccc3P(C)(C)=O)n2)ccc1N1CCC(N2CCN(CCCC#Cc3cccc4c3CN(C3CCC(=O)NC3=O)C4=O)CC2)CC1 (stereo not shown) [Compound D665, N-(5-((5-chloro-4-((2-(dimethylphosphoryl)phenyl)amino)pyrimidin-2-yl)amino)-2-(4-(4-(5-(2-(2,6-dioxopiperidin-3-yl)-1-oxoisoindolin-4-yl)pent-4-yn-1-yl)piperazin-1-yl)piperidin-1-yl)phenyl)but-2-ynamide] | 10.3
15 | CP(C)(=O)c1ccccc1Nc1nc(Nc2cc(NC(=O)/C=C/C(F)(F)F)c(N3CCC(N4CCN(CCCC#Cc5cccc6c5CN(C5CCC(=O)NC5=O)C6=O)CC4)CC3)cc2OCC(F)(F)F)ncc1Br (stereo not shown) [Compound D847, (E)-N-(5-((5-bromo-4-((2-(dimethylphosphoryl)phenyl)amino)pyrimidin-2-yl)amino)-2-(4-(4-(5-(2-(2,6-dioxopiperidin-3-yl)-1-oxoisoindolin-4-yl)pent-4-yn-1-yl)piperazin-1-yl)piperidin-1-yl)-4-(2,2,2-trifluoroethoxy)phenyl)-4,4,4-trifluorobut-2-enamide] | 16.3
16 | CC#CC(=O)Nc1cc(Nc2ncc(Cl)c(Nc3ccccc3P(C)(C)=O)n2)c(OC)cc1N1CCC(N2CCN(CCCCC#Cc3ccc4c(c3)CN(C3CCC(=O)NC3=O)C4=O)CC2)CC1 (stereo not shown) [Compound D602, N-(5-((5-chloro-4-((2-(dimethylphosphoryl)phenyl)amino)pyrimidin-2-yl)amino)-2-(4-(4-(6-(2-(2,6-dioxopiperidin-3-yl)-1-oxoisoindolin-5-yl)hex-5-yn-1-yl)piperazin-1-yl)piperidin-1-yl)-4-methoxyphenyl)but-2-ynamide] | 57.3
17 | C=C(F)C(=O)Nc1cc(Nc2ncc(Br)c(Nc3ccc4nccnc4c3N(C)S(C)(=O)=O)n2)c(OC)cc1N1CCC(N2CCN(CCCC#Cc3cccc4c3CN(C3CCC(=O)NC3=O)C4=O)CC2)CC1 (stereo not shown) [Compound D934] | 31.9
18 | C=CC(=O)Nc1cc(Nc2ncc(Br)c(Nc3ccccc3P(C)(C)=O)n2)ccc1N1CCC(N2CCN(CCCCC#Cc3cccc4c3CN(C3CCC(=O)NC3=O)C4=O)CC2)CC1 (stereo not shown) [Compound D550, N-(5-((5-bromo-4-((2-(dimethylphosphoryl)phenyl)amino)pyrimidin-2-yl)amino)-2-(4-(4-(6-(2-(2,6-dioxopiperidin-3-yl)-1-oxoisoindolin-4-yl)hex-5-yn-1-yl)piperazin-1-yl)piperidin-1-yl)phenyl)acrylamide] | 14.4
19 | C=CC(=O)Nc1cc(Nc2ncc(Cl)c(Nc3ccccc3P(C)(C)=O)n2)c(OC)cc1N1CCC(N2CCN(CCCCC#Cc3ccc4c(c3)CN(C3CCC(=O)NC3=O)C4=O)CC2)CC1 (stereo not shown) [Compound D601, N-(5-((5-chloro-4-((2-(dimethylphosphoryl)phenyl)amino)pyrimidin-2-yl)amino)-2-(4-(4-(6-(2-(2,6-dioxopiperidin-3-yl)-1-oxoisoindolin-5-yl)hex-5-yn-1-yl)piperazin-1-yl)piperidin-1-yl)-4-methoxyphenyl)acrylamide] | 144

Source: patent US20250257086A1, “EGFR DEGRADATION AGENT” (Beijing Tide Pharmaceutical Co., Ltd., priority 2022, published 2025)
